Measurements taken from patent US8440701B2, “Trisubstituted 1,2,4 triazoles” (Janssen Pharmaceutica NV, priority 2007, dated 2013).

Legend:
[1] = target: T1, hα7-wt nAChR (Homo sapiens, UniProt P36544); test: Ca2+ flux imaging (FDSS), potentiation of choline response; type: cell-based; details: for EC50: hα7-wt nAChR-expressing GH4C1 cells, potentiation of 100 μM choline, compounds 0.01 μM to 30 μM
T1 construct: expressed in transfected cells; host or cells: GH4C1 cells (recombinant, stably over-expressing)
T1 sequence (P36544 23-502): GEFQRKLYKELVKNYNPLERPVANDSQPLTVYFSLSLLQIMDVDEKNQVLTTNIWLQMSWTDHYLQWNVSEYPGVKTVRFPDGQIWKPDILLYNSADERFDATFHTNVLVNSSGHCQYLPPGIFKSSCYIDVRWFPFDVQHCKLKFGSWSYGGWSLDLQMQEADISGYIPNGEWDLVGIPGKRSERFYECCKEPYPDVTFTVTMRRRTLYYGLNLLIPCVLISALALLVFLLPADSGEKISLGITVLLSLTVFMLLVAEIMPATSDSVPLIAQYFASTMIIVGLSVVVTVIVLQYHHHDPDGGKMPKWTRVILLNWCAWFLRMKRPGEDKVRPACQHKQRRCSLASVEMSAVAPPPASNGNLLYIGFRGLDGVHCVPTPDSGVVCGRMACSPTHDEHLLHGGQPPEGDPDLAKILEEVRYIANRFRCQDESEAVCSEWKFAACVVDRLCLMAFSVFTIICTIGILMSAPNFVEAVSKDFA
Experimental: Ca^2+ Flux Imaging (FDSS)
• Hanks buffered saline solution (HBSS, Invitrogen, Belgium), supplemented with 10 mM HEPES (Invitrogen, Belgium), CaCl2 to a final concentration of 5 mM, 0.1% Bovine serum albumin (Sigma-Aldrich NV, Belgium). b) Calcium-Sensitive Dye—Fluo-4AM • Fluo-4AM (Molecular Probes, USA) was dissolved in DMSO containing 10% Pluronic acid (Molecular Probes, USA) to give a stock solution which was diluted in assay buffer supplemented with 5 mM probenicid (Sigma, Aldrich NV, Belgium) to give a final concentration of 2 μM. c) 384-Well Plates • Black 384 well plate black/clear plates, PDL pre-coated (Corning, Incorporated, USA) d) Calcium Flux Measurement • A Functional drug screening system (FDSS, Hamamatsu) was used to measure intracellular free-calcium flux signals. Method
Monolayers of hα7-wt nAChR-expressing GH4C1 cells were grown in multi-well plates, in particular black-sided, transparent bottomed 384 well plates coated with poly-D-lysine for 24 hours prior to loading with a fluorescent calcium indicator, in a particular embodiment loading with fluo-4AM for up to 120 minutes.
PAM activity was detected in real time by applying the compound to be tested to the loaded cells along with a α7 nicotinic receptor agonist during constant monitoring of the cellular calcium mobilization by fluorescence in a FDSS. Compounds giving peak fluorescent responses greater than the response due to agonist alone, were considered to be α7 nAChR PAM's. In a particular embodiment, the α7 nicotinic receptor agonist was choline, a more particular embodiment choline applied at a sub-maximal concentration of 100 μM. In a further setting of the present invention the compounds to be tested were applied prior to the α7 nicotinic receptor agonist, in a particular embodiment up to 10 minutes prior to the agonist.
A control response to choline was calculated on each plate from the difference in peak in fluorescence in wells receiving either choline or assay buffer alone. Compounds of the present invention were tested at a concentration range from 0.01 μM to 30 μM. Compounds were considered to have an interesting activity when they potentiated the choline signal at least with 200% when tested at a concentration of 30 μM (the efficacy of 100 μM choline was defined as 100% in the absence of a PAM).
EC50 values (potency), maximal effect (% efficacy), and Hill slopes were estimated by fitting the sigmoidal equation to the data using GraphPad Prism (GraphPad Software, Inc., San Diego, Calif.). An EC50 (or pEC50) was determined as a concentration relating to half the maximal effect, when a clear sigmoidal curve with top plateau was obtained.

[2] = target: T1, hα7-wt nAChR; test: Whole-cell voltage-clamp recording, PAM type classification; type: cell-based; design: key: Type 1 compounds enhance the effect size of the current elicited by 1 mM choline but minimally alter the kinetics of the receptor.; Type 2 compounds enhance the effect size of the current elicited by 1 mM choline while reducing the rate and/or the extent of desensitization.; Type 3 compounds enhance the effect size of the current elicited by 1 mM choline. When tested at higher concentrations up to 10 μM they completely inhibit desensitization, in particular a 1 mM choline application of 250 milliseconds.; Type 4 compounds allow for an initial desensitization of the receptor followed by a re-opening of the receptor during agonist application; details: qualitative kinetic properties; 1 mM choline; hα7-wt nAChR-expressing GH4C1 cells
Experimental: The compounds of the present invention are classified as type 1-4, based on qualitative kinetic properties, as determined by whole-cell voltage-clamp recordings. This classification is based on the effect of an α7 PAM compound, as described hereinbefore, on the signal elicited by an agonist application. In particular, said agonist is choline at a concentration of 1 mM. In a preferred experimental setting, said α7 PAM compound and choline are simultaneously applied to the cell, as described hereinafter. Desensitization is defined as the closure of the receptor upon activation during the application of the agonist in whole-cell voltage-clamp electrophysiology measurements seen as the reduction of the […] current after initial activation by the agonist.
The definition of the PAM types 1-4 is described hereinafter: • Type 1 compounds enhance the effect size of the current elicited by 1 mM choline but minimally alter the kinetics of the receptor. In particular, the rate and the extent of desensitization, elicited by the agonist, is not affected. The compound-modulated response to 1 mM choline, therefore, is a close to linear scaling of the 1 mM choline response in absence of the α7 PAM compound. • Type 2 compounds enhance the effect size of the current elicited by 1 mM choline while reducing the rate and/or the extent of desensitization. • Type 3 compounds enhance the effect size of the current elicited by 1 mM choline. […] At low-potency concentrations of the α7 PAM compound, the agonist-induced activation, which is followed by desensitization, can still be separated from the compound-induced re-opening as an initial inward current-maximum. At higher potency concentrations of the α7 PAM compound, the re-opening occurs faster than the closure due to desensitization so that the initial current-maximum disappears.
The compounds of the present invention also have a potentiating effect on the response to choline when measured by whole-cell voltage-clamp electrophysiology in GH4C1 cells stably over-expressing the human wild-type α7 receptor, as described hereinafter.
Whole-Cell Voltage-Clamp Recording
Whole-cell voltage-clamp recording from mammalian cells has provided a powerful means of assessing the function of membrane proteins thought to be subunits of ligand-gated ion channels. Activation of such proteins by endogenous or exogenous ligands causes opening of a pore associated with the receptor through which ions flow down their electrochemical gradient. In the case of the hα7-wt nAChR-expressing GH4C1 recombinant cell line the preferential permeability to calcium of this receptor means that calcium flows into the cell upon activation by ACh, choline and other nicotinic ligands giving rise to a calcium current. Since this receptor rapidly desensitizes in the presence of an agonist it is important that an application system is used which is capable of very rapid switching of solutions (<100 ms) to prevent partial or full desensitisation of receptor responses coincident with the time of agonist application. Consequently, a second convenient technique to assess the enhancement of nicotinic efficacy is whole-cell voltage-clamp recording from hα7-wt nAChR-expressing GH4C1 cells coupled with a rapid-application system.
• The external recording solution consisted of 152 mM NaCl, 5 mM KCl, 1 mM MgCl2, 1 mM Calcium, 10 mM HEPES; pH 7.3. The internal recording solution consisted of 140 mM CsCl, 10 mM HEPES, 10 mM EGTA, 1 mM MgCl2, pH 7.3. • b) Patch-clamp recording was carried out using a Patch-clamp amplifier (Multiclamp 700A, Axon Instruments, CA, USA). The membrane potential of hα7-wt nAChR-expressing GH4C1 cells was voltage-clamped in the whole cell configuration (Hamill et al, 1981) with a borosilicate glass electrode of 1.5-3 MΩ tip resistance when filled with the internal recording solution. […]

## CCCCC(O)Cn1nc(Nc2ccc(F)c(F)c2)nc1-c1cc(C)nc(C)c1 (single isomer, unassigned; (+)) [Compound E5, (+)-1-[3-(3,4-Difluoro-phenylamino)-5-(2,6-dimethyl-pyridin-4-yl)-[1,2,4]triazol-1-yl]-hexan-2-ol]
other
  melting point: 135 °C
[1]
  EC50: 204 nM
[2]
  PAM_type: 2

## CC[C@H](O)Cn1nc(Nc2ccc(F)c(F)c2)nc1-c1cc(C)nc(C)c1 [Compound E1, (S)-1-[3-(3,4-Difluoro-phenylamino)-5-(2,6-dimethyl-pyridin-4-yl)-[1,2,4]triazol-1-yl]-butan-2-ol]
other
  melting point: 166.04 °C
[1]
  EC50: 589 nM
[2]
  PAM_type: 2

## CCNc1cc(-c2nc(Nc3cccc(Cl)c3)nn2C[C@@H](O)CC)ccn1 [Compound E2, (S)-1-[3-(3-Chloro-phenylamino)-5-(2-ethylamino-pyridin-4-yl)-[1,2,4]triazol-1-yl]-butan-2-ol]
other
  melting point: 161.99 °C
[1]
  EC50: 355 nM
[2]
  PAM_type: 2

## CCC(O)Cn1nc(Nc2ccc(F)c(F)c2)nc1-c1ccnc(NCCOC)c1 (stereo not shown) [Compound E9]
other
  melting point: 137.06 °C
[1]; GH4-C1, maximal effect, efficacy of 100 μM choline defined as 100% in the absence of a PAM, GH4C1 cells
  Emax: 1000%
[1]
  EC50: 933 nM
[2]
  PAM_type: 2

## CCC(O)Cn1nc(Nc2cccc(Cl)c2)nc1-c1ccnc(C)c1 (stereo not shown) [Compound E17]
other
  melting point: 144.31 °C
[1]
  EC50: 1200 nM
[2]
  PAM_type: 2

## CC[C@H](O)Cn1nc(Nc2ccc(F)c(C)c2)nc1-c1ccnc(C)c1 [Compound E19, (S)-1-[3-(4-Fluoro-3-methyl-phenylamino)-5-(2-methyl-pyridin-4-yl)-[1,2,4]triazol-1-yl]-butan-2-ol]
other
  melting point: 133.85 °C
[1]
  EC50: 1950 nM
[2]
  PAM_type: 2

## CCNc1cc(-c2nc(Nc3ccc(F)c(F)c3)nn2CC(O)CC)ccn1 (stereo not shown) [Compound E25]
other
  melting point: 156.18 °C
[1]
  EC50: 692 nM
[2]
  PAM_type: 1

## CCNc1cc(-c2nc(Nc3cccc(Cl)c3)nn2C[C@H](O)CC)ccn1 [Compound E29, (R)-1-[3-(3-chloro-phenylamino)-5-(2-ethylamino-pyridin-4-yl)-[1,2,4]triazol-1-yl]-butan-2-ol]
other
  melting point: 158.66 °C
[1]
  EC50: 1020 nM
[2]
  PAM_type: 1

## CC[C@H](O)Cn1nc(Nc2cc(OC)cc(C(F)(F)F)c2)nc1-c1cc(C)nc(C)c1 [Compound E30, (S)-1-[5-(2,6-Dimethyl-pyridin-4-yl)-3-(3-methoxy-5-trifluoromethyl-phenylamino)-[1,2,4]triazol-1-yl]-butan-2-ol]
other
  melting point: 166.05 °C
[1]
  EC50: 200 nM
[2]
  PAM_type: 2
